We go through 8 molecules from patent US10525055B2, “Opioid receptor antagonist prodrugs” (Nirsum Laboratories, Inc., priority 2017, dated 2020).

One data set has as its target T1, DOR (Homo sapiens, UniProt P41143).
T1 construct: expressed in transfected cells; membranes prepared from them
In words: Opioid receptor binding assay, DOR ([3H]-DADLE). The following applies: for %Inh@MaxDose: DOR.

The nature of data set [1]: Dog pharmacokinetic studies, deep intramuscular. It is filed as in vivo, Beagle dogs. The following applies: dog IM, 48 mg/kg, Sesame oil + 1% Benzyl Alcohol. The method, then:
The purpose of this study is to determine the pharmacokinetics of test compounds in plasma, following deep intramuscular administration to Beagle dogs (n=3, unless otherwise specified).
(§1) The dose formulation (concentration−400 mg base equivalents/ml in sesame oil+1% benzyl alcohol, unless otherwise specified) was administered via deep intramuscularly (unless otherwise specified). The injection vehicle was also dosed via deep intramuscular route (unless otherwise specified) on contralateral site of each animal at study initiation. The animals were sedated with Propofol at 6 mg/kg via IV administration. Following sedation hair was carefully removed from around the injection site and the area gently cleaned. Care will be taken to avoid irritating skin during shaving and cleaning the injection site. Then dogs will be dosed with deep IM administration. At least 2.5 cm depth from the surface into the central aspect of the quadriceps or biceps femoris muscle, by angling the needle toward the femur. If the needle hits the femur, simply draws back slightly and then inject. The dose volume will be determined by the animals' body weight collected on the morning of dosing day. For repeated administration, the injection sites may be rotated to minimize tissue injury.
Blood samples were collected from a peripheral vessel from restrained, non-sedated animals per sampling time point.
Approximately 0.8 mL blood will be collected at each time point.
Each collected blood sample was centrifuged for 4 minutes at 4° C. and 10000 rpm for plasma collection. Plasma was collected and transferred into a pre-labeled PP tube in dry ice at each time point and precipitated immediately using ACN at a ratio of 1:4 (plasma:ACN). Centrifuged again (10 minutes, 12000 rpm) and obtain the supernatant.
After terminal collection, all supernatant was stored at approximately −80° C. F until bioanalysis.
LC-MS/MS methods for the quantitative determination of test compound in biological matrix were developed. […] The sample analysis was performed concurrently with a set of calibration standards and two sets of QC samples using the LC-MS/MS method.
Plasma concentration versus time data was analyzed by non-compartmental approaches using the Phoenix WinNonlin 6.3 software program. Cmax, Tmax, T1/2, AUC(0-t), AUC(0-inf), MRT(0-t), MRT(0-inf) and graphs of plasma concentration versus time profile were prepared.

Data set [2] in a line: Solubility determination in oil (cottonseed oil, sesame oil). The following applies: Sesame oil; for Solubility by volumetric flask method: Sesame oil: heating 60 °C, obs. 25 °C. The method, then:
A known amount of test substance (˜40 mg) was weighed into the vial, 100 μL of oil was added and heated to 60° C. and then system was slurried to reach equilibrium. […] Extra oil was added into the vial once compound precipitated out and then the system was re-equilibrated at 1000 rpm at room temperature (25° C.). Final concentration was determined by HPLC method as described below in Table 6a and 6b.

In a further data set the target is T2, MOR (Homo sapiens, UniProt P35372).
T2 construct: expressed in transfected cells; membranes prepared from them
T2 sequence (P35372 whole entry): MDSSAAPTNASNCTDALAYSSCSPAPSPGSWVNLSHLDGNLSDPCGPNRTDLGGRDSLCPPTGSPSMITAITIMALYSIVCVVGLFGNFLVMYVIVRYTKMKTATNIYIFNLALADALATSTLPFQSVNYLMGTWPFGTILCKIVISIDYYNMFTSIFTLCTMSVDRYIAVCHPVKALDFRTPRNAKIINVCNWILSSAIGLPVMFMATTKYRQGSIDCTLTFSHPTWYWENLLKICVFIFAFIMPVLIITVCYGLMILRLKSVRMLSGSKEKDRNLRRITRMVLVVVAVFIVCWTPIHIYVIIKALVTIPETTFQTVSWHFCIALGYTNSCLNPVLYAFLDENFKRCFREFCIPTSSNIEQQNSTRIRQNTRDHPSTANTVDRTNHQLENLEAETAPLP
In words: Opioid receptor binding assay, MOR ([3H]DAMGO). The conditions noted are these: MOR.

The next data set concerns the target T3, KOR (Homo sapiens, UniProt P41145).
T3 construct: expressed in transfected cells; membranes prepared from them
In words: Opioid receptor binding assay, KOR ([3H]Diprenorphine). The conditions noted are these: KOR.

Data set [3] in a line: Dog clinical observations after intramuscular dosing. The class given is in vivo, Beagle dogs. The method, then: Weight monitoring was done every week.
as §1

T3 sequence (P41145 whole entry): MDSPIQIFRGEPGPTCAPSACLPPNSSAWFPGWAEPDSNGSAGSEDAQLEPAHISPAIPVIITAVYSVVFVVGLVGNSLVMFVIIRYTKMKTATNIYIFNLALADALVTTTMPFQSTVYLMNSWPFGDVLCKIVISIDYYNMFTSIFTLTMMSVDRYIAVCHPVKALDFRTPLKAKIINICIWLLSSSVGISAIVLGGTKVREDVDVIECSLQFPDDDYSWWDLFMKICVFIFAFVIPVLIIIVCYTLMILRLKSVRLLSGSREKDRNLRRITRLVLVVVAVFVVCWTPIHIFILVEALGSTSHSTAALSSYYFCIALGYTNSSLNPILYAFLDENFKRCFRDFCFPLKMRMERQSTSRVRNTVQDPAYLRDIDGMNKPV
T1 sequence (P41143 whole entry): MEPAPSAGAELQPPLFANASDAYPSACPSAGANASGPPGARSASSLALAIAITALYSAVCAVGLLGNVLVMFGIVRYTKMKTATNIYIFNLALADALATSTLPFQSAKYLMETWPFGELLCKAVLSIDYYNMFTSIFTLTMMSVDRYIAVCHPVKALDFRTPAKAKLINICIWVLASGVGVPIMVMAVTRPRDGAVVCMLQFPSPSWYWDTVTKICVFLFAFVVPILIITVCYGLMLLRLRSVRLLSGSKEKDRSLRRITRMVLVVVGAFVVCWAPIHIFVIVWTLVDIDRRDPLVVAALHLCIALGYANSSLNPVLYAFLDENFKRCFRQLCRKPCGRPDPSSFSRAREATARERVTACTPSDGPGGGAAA

On to `CCCCCCCCCCCOC(=O)OCOc1ccc2c3c1O[C@H]1C(=O)CC[C@@]4(O)C(C2)N(CC2CC2)CC[C@]314` [Compound 4, (((4aS,7aR,12bS)-3-(cyclopropylmethyl)-4a-hydroxy-7-oxo-2,3,4,4a,5,6,7,7a-octahydro-1H-4,12-methanobenzofuro[3,2-e]isoquinolin-9-yl)oxy)methyl undecyl carbonate], for which the concentration for half-maximal inhibition (IC50) on DOR is over 10 µM. Besides, the “%Inh@MaxDose” value on DOR (MaxDose 10000 nM) is on record as 43.2%. The “AUC0-inf (ng · h/mL) prodrug” value in data set [1] turned out to be 829 ng·h/mL. Further, the “Solubility by volumetric flask method: Sesame oil” value in data set [2] is reported as over 400.4 mg/mL.

In the case of `C=C1CC[C@@]2(O)[C@H]3Cc4ccc(O)c5c4[C@@]2(CCN3CC2CC2)[C@H]1O5` [nalmefene, 17-cyclopropylmethyl-4,5α-epoxy-6-methylenemorphinan-3,14-diol, reference compound], the entries for the “%Inh@MaxDose” value at MOR (MaxDose 1000 nM), at DOR (MaxDose 1000 nM) and at KOR (MaxDose 1000 nM) were 103.5%, 94.5% and 103%, respectively.

Consider `C=C1CC[C@@]2(O)C3Cc4ccc(OCOC(=O)CCCCCCCCCCCCCCC)c5c4[C@@]2(CCN3CC2CC2)[C@H]1O5` [Compound 46, (((4aS,7aS,12bS)-3-(cyclopropylmethyl)-4a-hydroxy-7-methylene-2,3,4,4a,5,6,7,7a-octahydro-1H-4,12-methanobenzofuro[3,2-e]isoquinolin-9-yl)oxy)methyl hexadecanoate], for which the entries for the “%Inh@MaxDose” value at MOR (MaxDose 10000 nM), at DOR (MaxDose 10000 nM) and on KOR (MaxDose 10000 nM) were 102.3%, 72.3% and 101.8%, respectively.

As for `C=C1CC[C@@]2(O)C3Cc4ccc(OCOC(=O)OCCCCCCCCCCCCCCCC)c5c4[C@@]2(CCN3CC2CC2)[C@H]1O5` [Compound 34, (((4aS,7aS,12bS)-3-(cyclopropylmethyl)-4a-hydroxy-7-methylene-2,3,4,4a,5,6,7,7a-octahydro-1H-4,12-methanobenzofuro[3,2-e]isoquinolin-9-yl)oxy)methyl hexadecyl carbonate], the “%Inh@MaxDose” value on DOR (MaxDose 10000 nM) worked out at 22.7%.

On to `C=C1CC[C@@]2(O)C3Cc4ccc(OCOC(=O)OCCCCCCCCCCC)c5c4[C@@]2(CCN3CC2CC2)[C@H]1O5` [Compound 5, (((4aS,7aS,12bS)-3-(cyclopropylmethyl)-4a-hydroxy-7-methylene-2,3,4,4a,5,6,7,7a-octahydro-1H-4,12-methanobenzofuro[3,2-e]isoquinolin-9-yl)oxy)methyl undecyl carbonate], for which the “BT (clinical observations, R-TA)” value was “BT:38.6 °C” in data set [3] (dog D1001, 48 mg/kg, 264 hr); “BT:38.6 °C” in data set [3] (dog D1001, 48 mg/kg, 288 hr); “BT:38.0 °C” in data set [3] (dog D1001, 48 mg/kg, 312 hr); “BT:38.4 °C” in data set [3] (dog D1001, 48 mg/kg, 336 hr); “BT:38.1 °C” in data set [3] (dog D1001, 48 mg/kg, 360 hr); “BT:38.0 °C” in data set [3] (dog D1001, 48 mg/kg, 432 hr). The “BT (clinical observations, R-TA)” value is “BT:38.0 °C” in data set [3] (dog D1001, 48 mg/kg, 480 hr); “BT38.2 °C” in data set [3] (dog D1001, 48 mg/kg, 528 hr); “BT:38.4 °C” in data set [3] (dog D1001, 48 mg/kg, 552 hr); “BT:38.4 °C” in data set [3] (dog D1001, 48 mg/kg, 576 hr); “BT:38.3 °C” in data set [3] (dog D1001, 48 mg/kg, 600 hr); “BT:38.6 °C” in data set [3] (dog D1001, 48 mg/kg, 624 hr). Further, the “BT (clinical observations, R-TA)” value in data set [3] (dog D1001, 48 mg/kg, 648 hr) was “BT:38.3 °C”; in data set [3] (dog D1001, 48 mg/kg, 672 hr), “BT:38.3 °C”; in data set [3] (dog D1001, 48 mg/kg, […]) it was “BT:38.7 °C”; in data set [3] (dog D1002, 48 mg/kg, 264 hr) it was “BT:39.5 °C”; in data set [3] (dog D1002, 48 mg/kg, 288 hr), “BT:39.5 °C”; in data set [3] (dog D1002, 48 mg/kg, 312 hr) it was “BT:38.5 °C”. For the same molecule, the “BT (clinical observations, R-TA)” value in data set [3] (dog D1002, 48 mg/kg, 336 hr) is “BT:38.7 °C”; in data set [3] (dog D1002, 48 mg/kg, 360 hr), “BT:39.1 °C”; in data set [3] (dog D1002, 48 mg/kg, 432 hr), “BT:38.9 °C”; in data set [3] (dog D1002, 48 mg/kg, 456 hr), “BT:38.9 °C”; in data set [3] (dog D1002, 48 mg/kg, 480 hr), “BT:39.2 °C”; in data set [3] (dog D1002, 48 mg/kg, 504 hr) it was “BT:38.7 °C”. In addition, the “BT (clinical observations, R-TA)” value in data set [3] (dog D1002, 48 mg/kg, 528 hr) was “BT:37.9 °C”; in data set [3] (dog D1002, 48 mg/kg, 552 hr) it was “BT:39.2 °C”; in data set [3] (dog D1002, 48 mg/kg, 576 hr), “BT:39.0 °C”; in data set [3] (dog D1002, 48 mg/kg, 600 hr), “BT:38.6 °C”; in data set [3] (dog D1002, 48 mg/kg, 624 hr), “BT:38.9 °C”; in data set [3] (dog D1002, 48 mg/kg, 648 hr), “BT:38.5 °C”. Moreover, the “BT (clinical observations, R-TA)” value in data set [3] (dog D1002, 48 mg/kg, 672 hr) is “BT:39.3 °C”. The “AUC0-inf (ng · h/mL) prodrug” value in data set [1] was determined as 3869 ng·h/mL. In data set [1], the “Half-life t1/2 (hour) prodrug” value was 70.9 h. For the same molecule, the “Solubility by volumetric flask method: Sesame oil” value in data set [2] was over 400.6 mg/mL.

Turning to `C=C1CC[C@@]2(O)C3Cc4ccc(OC(=O)OCCCCCCCCCCCCCCC)c5c4[C@@]2(CCN3CC2CC2)[C@H]1O5` [Compound 32, (4aS,7aS,12bS)-3-(cyclopropylmethyl)-4a-hydroxy-7-methylene-2,3,4,4a,5,6,7,7a-octahydro-1H-4,12-methanobenzofuro[3,2-e]isoquinolin-9-yl pentadecyl carbonate], the “%Inh@MaxDose” value is listed as 75.9% on MOR (MaxDose 10000 nM) and 80.1% on KOR (MaxDose 10000 nM). The “Approximate Solubility (mg/mL) in Excipient: Sesame oil” value in data set [2] (heating temp. 60 °C, obs. temp. 25 °C) was over 410 mg/mL.

With `Oc1ccc2c3c1O[C@H]1c4[nH]c5ccccc5c4C[C@@]4(O)[C@@H](C2)N(CC2CC2)CC[C@]314` [Naltrindole, reference compound], the “%Inh@MaxDose” value at DOR (MaxDose 100 nM) amounted to 98.8%.

Take `C=C1CC[C@@]2(O)C3Cc4ccc(OCOC(=O)CCCCCCCCCCC)c5c4[C@@]2(CCN3CC2CC2)[C@H]1O5` [Compound 44, (((4aS,7aS,12bS)-3-(cyclopropylmethyl)-4a-hydroxy-7-methylene-2,3,4,4a,5,6,7,7a-octahydro-1H-4,12-methanobenzofuro[3,2-e]isoquinolin-9-yl)oxy)methyl dodecanoate]: the results for the “%Inh@MaxDose” value on MOR (MaxDose 10000 nM), at DOR (MaxDose 10000 nM) and at KOR (MaxDose 10000 nM) were 83.1%, 79.1% and 99.2%, respectively.
